Laboratory results: PubChem BioAssay (NCI)
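96-well plates; 48 h exposure; 5 concentrations. Endpoints by linear interpolation between flanking doses. Not reached: highest tested concentration assigned. GI50: concentration for 50% inhibition of growth. Definition used: TGI = concentration required for complete inhibition of growth.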

Experiments:
Assay in all cases: NCI tumour cell line growth inhibition, 48 h
SF-539 CNS = test system: SF-539 CNS
HS 578T breast = test system: HS 578T breast
A498 renal = test system: A498 renal
A549 NSCLC = test system: A549 NSCLC
MOLT-4 leukemia = test system: MOLT-4 leukemia
NCI-H460 lung = test system: NCI-H460 lung
IGROV1 ovarian = test system: IGROV1 ovarian
DU-145 prostate = test system: DU-145 prostate
XF 498 CNS = test system: XF 498 CNS
DLD-1 colon = test system: DLD-1 colon
P388/ADR leukemia = test system: P388/ADR leukemia
DMS 114 small cell lung = test system: DMS 114 small cell lung
SN12K1 renal = test system: SN12K1 renal

Compound	TGI (SF-539 CNS)	TGI (HS 578T breast)	TGI (A498 renal)	TGI (A549 NSCLC)	TGI (MOLT-4 leukemia)	TGI (NCI-H460 lung)	TGI (IGROV1 ovarian)	TGI (DU-145 prostate)	GI50 (SF-539 CNS)	GI50 (HS 578T breast)	GI50 (A498 renal)	GI50 (IGROV1 ovarian)	GI50 (DU-145 prostate)	TGI (XF 498 CNS)	TGI (DLD-1 colon)	TGI (P388/ADR leukemia)	TGI (DMS 114 small cell lung)	TGI (SN12K1 renal)	GI50 (A549 NSCLC)	GI50 (MOLT-4 leukemia)
Cc1ccc2c(c1)nc(N)n[n+]2[O-]	> 100 µM	> 100 µM	> 100 µM	> 100 µM	> 100 µM	> 100 µM	> 100 µM	> 100 µM												
COc1cc2oc(-c3ccc(O)cc3)c(OC3OC(C)C(O)C(O)C3O)c(=O)c2c(O)c1OC (stereo not given)	> 100 µM	> 100 µM	> 100 µM	> 100 µM	> 100 µM	> 100 µM	> 100 µM	> 100 µM												
C/C(=N\NC(=S)NC(C)C)c1nc2ncccc2[nH]1	> 85 µM	69.7 µM	> 100 µM	> 100 µM	> 100 µM	> 100 µM	> 80.1 µM	> 100 µM												
CCC(=O)C(c1ccccc1)c1ccccn1 (stereo not given)		> 100 µM	> 100 µM	> 100 µM		> 100 µM	> 100 µM	> 100 µM												
Cc1[nH]c(/C=C2\C(=O)Nc3ccc(S(=O)(=O)Cc4c(Cl)cccc4Cl)cc32)c(C)c1C(=O)N1CCC[C@@H]1CN1CCCC1	2.89 µM	43.9 µM	52.8 µM				7.98 µM	3.39 µM	1.51 µM	7.72 µM	18.7 µM	3.09 µM	1.85 µM							
COC1OC(=O)[C@H]2O[N+]([O-])=C(C)[C@@H]12 (stereo not given in full)	> 100 µM		> 100 µM	> 100 µM	> 100 µM	> 100 µM	> 100 µM							> 100 µM	> 100 µM	> 100 µM	> 100 µM	> 100 µM		
OCC1CCCC(n2cnc3c(=S)nc[nH]c32)O1 (stereo not given)		> 100 µM	> 100 µM	> 100 µM		> 100 µM	> 100 µM	> 100 µM												
C=CC(=O)Nc1cccc(-c2nc(SC)nc(Nc3ccccc3OC)c2C#N)c1	4.53 µM	6.61 µM	9.34 µM	5.24 µM	83.5 µM			4.96 µM	1.93 µM	2.34 µM	2.8 µM		1.92 µM						2.08 µM	2.62 µM
O=C(O)c1ccc(NC(c2ccccc2)c2ccc3cccnc3c2O)cc1 (stereo not given)	25.9 µM	> 73.7 µM	78.4 µM	> 100 µM	> 42.6 µM	> 48.5 µM	> 95.8 µM	> 100 µM												
N#Cc1c(NC(=S)NC(=O)c2ccccc2)nc2c(c1-c1ccccc1)CCC2	> 100 µM	> 100 µM		> 100 µM	> 100 µM	> 100 µM	> 100 µM	> 100 µM												
Nc1n[nH]c(=O)[nH]1	> 100 µM		> 100 µM	> 100 µM	> 100 µM	> 100 µM	> 100 µM							> 100 µM	> 100 µM	> 100 µM	> 100 µM	> 100 µM		
O=C(Nc1ccc(I)cc1C(=O)NCCO)c1cccs1	> 100 µM			> 100 µM	> 100 µM	> 100 µM	> 100 µM													
